Results as given in patent US20260008793A1, “IONIZABLE CATIONIC LIPIDS INCORPORATING SILICON” (ALDEXCHEM KFT., priority 2022, published 2026).

Key:
[1] = test system: HeLa cells; assay: Transfection efficiency with Luciferase-mRNA, Nano-Glo assay (Method A); format: cell-based; details: 100 ng Luciferase (SecNLuc) mRNA, 24 h, luminescence
Experimental: (§1) The synthesized lipids were tested in term of in vitro transfection efficacy and toxicity on HeLa cells. In order to perform the mentioned biological tests, appropriate LNPs had to be formulated from the synthesized lipids. The formulation technique was different in Method A and B. The particle size, PDI and zeta potential of resulting LNPs were determined by means of Dynamic Light Scattering technique (DLS). Prior to biological testing the encapsulation efficiency (EE) of the loaded LNPs was determined by using RiboGreen RNA assay. In case of Method A Luciferase-mRNA while in case of Method B GFP-mRNA was transfected into the cells. In parallel with the transfection experiments, toxicity of the investigated LNPs was determined, in case of Method A resazurin assay while in case of Method B MTT assay was used. In the case of some lipids, the apparent pKa in LNPs was determined by using TNS titration based on the method described: Angew Chem Int Ed Engl. 2012, 51 (34), 8529-8533, doi: 10.1002/anie.201203263).
• 1. Prepare mRNA solution by adding 100 ng mRNA (SecNLuc, #P009024, RiboPro) to 5 μl Opti-MEM • a. multiply by number of wells, include different concentrations and add 10% extra • b. a standard set-up we use is 100 ng-50 ng-10 ng mRNA/well in triplicate, which would need 528 ng mRNA (includes 10% extra)
• 2. (If applicable) Prepare different concentrations in Opti-MEM (for instance 100/50/10 ng). • 3. Add 10 μl to each well and mix carefully by pipetting. • 4. Mix by swirling the plate horizontally at modest speed. Reverse in direction 3 times. • 5. Incubate for 24 hours (incubator).
This protocol is applied to measure luciferase activity for secreted NanoLuc and is based on the protocol by Promega (Nano-Glo® Luciferase Assay System #N1110-1150). The protocol is designed for a 384-wells plate, but volumes can be changed accordingly for other plates.
• 1. Plate cells (HeLa) in 96-well plate, grow until 80% confluent and transfect with SecNanoLuc mRNA and incubate for the desired period (24 h). • 2. After incubation, the translated protein is accumulated in the medium. Transfer medium to a new plate or tubes • 3. Transfer 12 μl of each sample to a black-walled, clear-bottom 384-well plate • a. Black-walled plates are important to prevent shine-through of luminescence from other wells; alternatively, multiple wells between samples can be left empty • 4. Set-up plate reader • 5. Prepare the desired amount of Nano-Glo® Luciferase Assay Reagent by combining one volume of Nano-Glo® Luciferase Assay Substrate with 50 volumes of Nano-Glo® Luciferase Assay Buffer • a. composition: 100 mM MES pH 6; 1 mM EDTA; 0.5% NP-50; 150 mM KCl; 1 mM DTT; 35 mM Thiourea • b. Briefly spin tubes containing substrate in a microcentrifuge before use • 6. Add and mix (by pipetting) 12 μl Nano-Glo® Luciferase Assay Reagent per well • a. Wait approximately 3 minutes before measuring luminescence. […] Measure luminescence in plate reader using standard protocol luciferase (this includes mixing sample in plate reader)

[2] = LNP size, PDI and zeta potential by Dynamic Light Scattering (Method A); format: physicochemical; details: LNP formulated by Method A; for Zeta potential (mV): 1xPBS pH 7.4; for PDI / Size (nm): DLS; for Size (nm): Luciferase-mRNA loaded
Experimental: as §1
• 1. If needed, prepare stock solutions by solving known amounts of lipid powder into an appropriate solvent. The recommended solvent is Ethanol and the recommended concentration is typically in the range 10-50 mM. Higher concentrations are preferred to allow flexibility on mRNA-LNP concentration. • 2. Remove the lipid stock solutions from the −20° C. freezer. For long-term storage, −80° C. is used. • 3. Check the vials for precipitation, DOPE (CAS #4004-05-1) (20 mM) and DSPE-PEG (CAS #474922-26-4) (5 mM) may need a 5-30 minute incubation step at 37° C. with intermittent vortexing to resuspend all contents. […] As a last resort, lipids may be heated to 50° C. to resuspend, time should be kept as short as possible to prevent oxidation or other modifying or degradative processes. • 4. Mix the lipids by vortexing for 2 minutes. • 5. […] Cooling the solution prevent excessive evaporation of ethanol or similar solvents upon opening. • 6. Meanwhile, thaw the RNA samples, including the latest SecNLuc control, by inserting the frozen tube in a room temperature aluminium block. • 7. Prepare for each LNP-formulation with identical mRNA component, an RNA master mix according to Table 1 below in a fresh tube. Use of a master mix allows more precise comparison of lipid formulations relative to each other. Split the master mix over a number of fresh tubes equal to the number of samples+controls. Each tube contains 375 μl of mRNA in 10 mM Citrate pH 4.0. • 8. Prepare for each LNP formulation with identical lipid composition a Lipid master mix according to Table 1 below in a fresh tube, exclude the lipid of interest. Use of a master mix allows more precise comparison of the novel ionizable lipid relative to each other. Split the master mix over a number of fresh tubes equal to the number of samples+controls. Each tube contains 65.5 μl of lipid master mix. • 9. Add the ionizable lipid of interest to the equally divide lipid master mix. Mix well by pipetting up and down. Label the tube according to the ionizable lipid used. • 10. Power on the ‘L 1 formulation machine’ (L 1 FM) and allow it to do a calibration of motor positions.
• 18. Fill a fresh syringe (C) through a blunt 18 G stainless steel needle with the previously prepared RNA mixture of step 6. The volume should be approximately […] of total formulation volume+25 μl (dead-volume). Make sure to remove all air bubbles by tapping. • 19. Fill a fresh syringe (D) through a blunt 18 G stainless steel needle with the Lipid master mix. The volume should be approximately 35% of total formulation volume+25 μl (dead-volume). Again, Make sure to remove all bubbles. • 20. Attach the syringes in the correct orientation, syringe A on the left and syringe B on the right • 21. Load the ‘Receiving station’ with appropriate sized collection containers (2 ml Eppendorf tubes). • 22. Press the microfluidic chip to the back of the machine with your thumb and hold, press the ‘Button 1’ (40 g). […]

Row | SMILES | Transfection* (Method A = 100 ng mRNA) [1] | Zeta potential (mV) [2] [mV] | PDI [2] | Size (nm) [2] [nm]
1 | CCCCCCCCOC(CCCCCCC)O[Si](C)(C)OCCCCCCN(CCCCO)CCCCCCOC(=O)C(CCCCCC)CCCCCCCC (stereo not drawn) [Example 139, 17-heptyl-7-(4-hydroxybutyl)-15,15-dimethyl-14,16,18-trioxa-7-aza-15-silahexacosyl 2-hexyldecanoate] | 11829351 | −12.3 | 0.14 | 137.4
2 | CC/C=C\C/C=C\C/C=C\C/C=C\C/C=C\CCCCN(CCCCO)CCCCCC(OCCCCCCCC)O[Si](C)(C)O[Si](C)(C)OCCCCCCCC (stereo not drawn) [Example 200, 4-(((5Z,8Z,11Z,14Z,17Z)-icosa-5,8,11,14,17-pentaen-1-yl)(6-(octyloxy)-6-((1,1,3,3-tetramethyl-3-(octyloxy)disiloxaneyl)oxy)hexyl)amino)butan-1-ol] | 225921 | −13.03 | 0.089 | 155.1
3 | CCCCCCCCOC(CCCCCCC)O[Si](C)(C)CCCCCCN(CCCCO)CCCCCCOC(=O)C(CCCCCC)CCCCCCCC (stereo not drawn) [Example 138, 16-heptyl-7-(4-hydroxybutyl)-14,14-dimethyl-15,17-dioxa-7-aza-14-silapentacosyl 2-hexyldecanoate] | 1216014 | −16.19 | 0.104 | 211.7
4 | CCCCCCCCO[Si](C)(C)OC(CCCCCCC)OCCCCCCN(CCCCO)CCCCCCOC(=O)C(CCCCCC)CCCCCCCC (stereo not drawn) [Example 131, 15-heptyl-7-(4-hydroxybutyl)-17,17-dimethyl-14,16,18-trioxa-7-aza-17-silahexacosyl 2-hexyldecanoate] | 951145 | −16.95 | 0.219 | 244.2
5 | CCCCCCCCC(SCCCCC)C(=O)OCCCCCCN(CCCCO)CCCCCCOC(CCCCCCC)O[Si](C)(C)CCCCCCCC (stereo not drawn) [Example 178, 15-heptyl-7-(4-hydroxybutyl)-17,17-dimethyl-14,16-dioxa-7-aza-17-silapentacosyl 2-(pentylthio)decanoate] | 557798 | −13.00 | 0.058 | 209.9
6 | CCCCCCCCCCSC(CCCC)C(=O)OCCCCCCN(CCCCO)CCCCCC(OCCCCCCCC)O[Si](C)(C)CCCCCCCC (stereo not drawn) [Example 166, 6-((6-((dimethyl(octyl)silyl)oxy)-6-(octyloxy)hexyl)(4-hydroxybutyl)amino)hexyl 2-(decylthio)hexanoate] | 791474 | −13.01 | 0.185 | 223.6
7 | CCCCCCCCOC(CCCCCN(CCCCO)CCC[C@@H](C)C1CCC2C3CCC4C[C@H](OC)CC[C@]4(C)C3CC[C@@]21C)O[Si](C)(C)CCCCCCCC (stereo partly drawn) [Example 214, 4-((6-((dimethyl(octyl)silyl)oxy)-6-(octyloxy)hexyl)((4R)-4-((3R,10S,13R)-3-methoxy-10,13-dimethylhexadecahydro-1H-cyclopenta[a]phenanthren-17-yl)pentyl)amino)butan-1-ol] | 318542 | −13.59 | 0.14 | 191.2
8 | CCCCCCCCOC(CCCCCCC)O[Si](C)(C)OCCCCCCN(CCCCO)CCC[C@@H](C)C1CCC2C3CCC4C[C@H](OC)CC[C@]4(C)C3CC[C@@]21C (stereo partly drawn) [Example 225, 15-heptyl-5-((4R)-4-((3R,10S,13R)-3-methoxy-10,13-dimethylhexadecahydro-1H-cyclopenta[a]phenanthren-17-yl)pentyl)-13,13-dimethyl-12,14,16-trioxa-5-aza-13-silatetracosan-1-ol] | 503272 | −13.58 | 0.04 | 117.9
9 | CC/C=C\C/C=C\C/C=C\C/C=C\C/C=C\CCCCN(CCCCO)CCCCCC[Si](C)(C)OC(CCCCCCC)OCCCCCCCC (stereo not drawn) [Example 204, 14-heptyl-5-((5Z,8Z,11Z,14Z,17Z)-icosa-5,8,11,14,17-pentaen-1-yl)-12,12-dimethyl-13,15-dioxa-5-aza-12-silatricosan-1-ol] | 282773 | −10.63 | 0.056 | 140
10 | CCCCCCCC[Si](C)(C)OC(CCCCCCC)OCCCCCCN(CCCCCCOC(CCCCCCC)O[Si](C)(C)CCCCCCCC)CCC1CCCN1C (stereo not drawn) [Example 120, 6-((1-((dimethyl(octyl)silyl)oxy)octyl)oxy)-N-(6-((1-((dimethyl(octyl)silyl)oxy)octyl)oxy)hexyl)-N-(2-(1-methylpyrrolidin-2-yl)ethyl)hexan-1-amine] | 469598.5 | −13.18 | 0.055 | 161.4
11 | CCCCCCCCCCSC(CCCC)C(=O)OCCCCCCN(CCCCO)CCCCCC(OCCCCCCCC)O[Si](C)(C)O[Si](C)(C)OCCCCCCCC (stereo not drawn) [Example 172, 6-((4-hydroxybutyl)(6-(octyloxy)-6-((1,1,3,3-tetramethyl-3-(octyloxy)disiloxaneyl)oxy)hexyl)amino)hexyl 2-(decylthio)hexanoate] | 301328 | −9.92 | 0.07 | 151.7
12 | CCCCCCCCOC(CCCCCN(CCCCO)CCCCCCOC(=O)C(CCCCCC)CCCCCCCC)O[Si](C)(C)O[Si](C)(C)OCCCCCCCC (stereo not drawn) [Example 134, 6-((4-hydroxybutyl)(6-(octyloxy)-6-((1,1,3,3-tetramethyl-3-(octyloxy)disiloxaneyl)oxy)hexyl)amino)hexyl 2-hexyldecanoate] | 398528 | −11.99 | 0.006 | 145.8
